Assay results from patent US5719152A, “Tricyclic quinoxalinedione derivatives” (Sumitomo Pharmaceuticals Co., Ltd., priority 1993, dated 1998).

Columns and labels:
NMDA-induced seizure = NMDA-induced seizure model; format: in vivo; conditions: Mus musculus, ip, 0.5 h; mice; test compound intraperitoneal 30 min before NMDA (5 nmol) i.c.v.; ten mice; read-out: ED50, inhibition of NMDA-induced tonic seizures
Procedure: The compounds of the present invention attenuated strongly NMDA-induced seizure under systemic administrations in the following in vivo model.
NMDA-induced seizure model
Thirty min later following intraperitoneal administration of the test compound (0.3~30 mg/kg) into each of ten mice tested, NMDA (5 nmol) was administered intracerebroventricularly (i.c.v.). […] The activity of the test compound may be shown by the ED50 value.

[1] = system: strychnine-insensitive glycine modulatory site of NMDA (N-methyl D-aspartate) receptors; conditions: 0.1 mM; rat brain synaptic membrane preparation
Procedure: The activities of the compounds were measured by [^3 H] DCKA and [^3 H] glycine binding inhibition studies as illustrated below.
[^3 H] glycine binding studies
A crude rat brain synaptic membrane preparation was washed three times by centrifugation at 50,000×g for 30 min with 50 mM tris acetate (pH 7.4). The pellets obtained were suspended in 0.23M sucrose solution and stored at -80° C. For binding studies, the frozen suspension was thawed, treated with 0.08% triton X-100 at 2° C. for 10 min, and washed twice by the centrifugation as mentioned above. The synaptic membrane thus prepared (ca. 150~200 μg of protein) was incubated with 10 nM [^3 H] glycine (1.11 TBq/mmol) and the test compound (10 ng/mL~0.1 ng/mL) at 2° C. for 10 min in 50 mM tris acetate (pH 7.4). The incubation was terminated by suction filtration using Whatman GF/B glass filter. The radioactivities bound to the membrane on the filter was measured by scintillation counting. Non-specific binding was calculated by the radioactivities measured under the incubations in the presence of 0.1 mM D-serine.

## Cl.NCc1ccc(NC(=O)C[C@@H]2CCc3cc(Cl)cc4[nH]c(=O)c(=O)n2c34)c(CC(=O)O)c1 [Example 11, (S)-9-Chloro-5-[p-aminomethyl-o-(carboxymethyl)phenylcarbamoylmethyl]-6,7-dihydro-1H, 5H-pyrido[1,2,3-de]quinoxaline-2,3-dione hydrochloride]
NMDA-induced seizure
  ED50: 3.1 mg/kg

## Cl.NCc1ccc(NC(=O)C[C@@H]2CCc3cc(Cl)cc4[nH]c(=O)c(=O)n2c34)c(OCC(=O)O)c1 [Example 31, (S)-9-Chloro-5-[p-aminomethyl-o-(carboxymethoxy)phenylcarbamoylmethyl]-6,7-dihydro-1H, 5H-pyrido[1,2,3-de]quinoxaline-2,3-dione hydrochloride]
NMDA-induced seizure
  ED50: 1 mg/kg

## Cl.NCc1ccc(NC(=O)C[C@@H]2CCc3cc(Br)cc4[nH]c(=O)c(=O)n2c34)c(OCC(=O)O)c1 [Example 35, (S)-9-Bromo-5-[p-aminomethyl-o-(carboxymethoxy)phenylcarbamoylmethyl]6,7-dihydro-1H, 5H-pyrido[1,2,3-de]quinoxaline-2,3-dione hydrochloride]
NMDA-induced seizure
  ED50: 2.1 mg/kg

## O=C1C[C@@H]2OCC=C3CN4CC[C@]56c7ccccc7N1[C@H]5[C@H]2[C@H]3C[C@H]46 [strychnine]
[1]
  inhibition of [3H] glycine binding: not inhibited
